The values that follow come from a melting point compilation (Tetko et al.; mined from patent text by program, amines drawn as free bases though some values may be those of a salt).

SMILES strings stand for the structures.

`CN1CCC(Oc2ccc(N)cc2)(c2ccccc2)CC1`: the melting point (as a rule, the temperature, or range, at which the solid turns liquid) was in the range of 174 to 175 °C.

With `C=Cc1ccc2c(c1)c1ccccc1n2CC`, the melting point was in the range of 66 to 67 °C.

With `O=C(O)CCc1cn(Cc2ccc(OCc3ccccn3)cc2)cc1-c1ccccc1`, the melting point lay in the range of 109 to 110 °C.

The compound `O=C(Nc1ccc(N2CCN(Cc3ccccc3)CC2)cc1)c1ccccc1-c1ccc(C(F)(F)F)cc1` showed a melting point of 180 °C.

In turn, `CCCOc1cc(CCCO)n(Cc2ccc(F)cc2F)n1` displayed a melting point of 66 to 67 °C.

As for `Cc1noc2c1C(=O)C(CCCN1CCC(C(=O)c3ccc(F)cc3)CC1)CC2` (stereo not drawn), the melting point is 81 to 83 °C.

`CCOC(=O)c1ccc(CCC(=O)O)[nH]1` had a melting point of 126 to 128 °C.

With `Cc1cccc(-c2c(O)c3ccc(Cl)cc3[nH]c2=O)c1`, the melting point was > 350 °C.

`Cc1nnc(-c2ccc3occ(-c4ccccn4)c3c2)o1` yielded a melting point of 148 to 149 °C.

Consider `CC1Oc2c(F)cc(CN3CC=C(c4ccc(Cl)cc4)CC3)cc2NC1=O` (stereo not drawn), for which the melting point was in the range of 214 to 233 °C.

Compound `CC1(C)COC(=S)N(Cc2ccccc2N)C1` came in with a melting point of 90.8 to 92.1 °C.

For `O=C(Nc1ccc2c(c1)COCC2)OCc1ccccc1`, the melting point was in the range of 94 to 95 °C.

Turning to `COC(=O)c1ccc(OC(=O)c2ccccc2)cc1OC`, the melting point is 91 °C.

Consider `CCOC(=O)c1c(C)[nH]c(-c2ccncc2)c1C`, for which the melting point was in the range of 180 to 182 °C.

Compound `COc1cc2c(Nc3ccc(Cl)cc3F)ncnc2cc1OCCCC(=O)N1CCCC1` displayed a melting point of 254 to 256 °C.

`COc1ccc(N)cc1C(=O)O` returned a melting point of 163 to 166 °C.

Take `O=C(O)c1cc2c(c([N+](=O)[O-])c1)OC(C(Cl)(Cl)Cl)OC2C(Cl)(Cl)Cl` (stereo not drawn): the melting point lay in the range of 211 to 212 °C.

The compound `COc1ccc(Oc2ccc(C(=O)CC(SC(C)=O)C(=O)O)cc2)cc1` (stereo not drawn) returned a melting point of 110 to 111 °C.

Take `COc1ccc(-c2cc(C)c(N)c(CO)c2)cn1`: the melting point lay within 80 to 82 °C.

For `CC(=O)c1c(C)c(NC(=O)CC(C)(C)C)c(C)c2c1S(=O)CC2c1ccc(C(C)C)cc1` (stereo not drawn), the melting point lay in the range of 214 to 216 °C.

The compound `O=c1c2cccnc2n(-c2cccc(Cl)c2)c2cc[nH]c12` displayed a melting point of 300 to 301 °C.

`COC(=O)C(=O)c1ccc(OCCOc2ccc3ccncc3c2)cc1` yielded a melting point of 144 to 145 °C.

As for `OCc1cccc(Cc2c[nH]cn2)c1O`, the melting point lay in the range of 152 to 155 °C.

With `O=C1c2ccccc2C(=O)N1C/C=C(\F)COc1ccc(Cl)cc1Cl`, the melting point was in the range of 115 to 116 °C.

`C[C@H](CC(F)(F)F)C(=O)N1C(=O)O[C@@H](c2ccccc2)[C@H]1C` gave a melting point of 72.5 to 73.5 °C.

`Nc1cc(=O)n(Cc2c(Cl)cccc2Cl)[nH]1`: the melting point was found to be 225 °C.

Take `O=C(c1c(Cl)cccc1Cl)N(C(=O)c1c(Cl)cccc1Cl)c1cc(-c2ccc(Cl)cc2)on1`: the melting point lay in the range of 219 to 223 °C.

As to `COc1cc2c(cc1Nc1ncc(Cl)c(N[C@@H]3CCCC[C@H]3NS(C)(=O)=O)n1)NC(=O)CN(CC1CC1)C2`, the melting point was 97 °C.

As to `CCn1c(=O)c2[nH]c(/C=C/c3cccc(OC(F)(F)F)c3)nc2n(CC)c1=O`, the melting point was in the range of 266 to 267 °C.

Take `CN1CCC(NC(=O)c2cc(Cl)cc3oc(-c4ccccc4)nc23)CC1`: the melting point was 170 to 172 °C.

With `O=[N+]([O-])c1ccc(-n2nc3c(c2O)-c2ccccc2CC3)nc1`, the melting point was 226 to 227 °C.

The compound `COC(=O)Oc1ccc(C=Nc2ccc(C#N)cc2)cc1` displayed a melting point of 139 °C.

For `CCCCN1CC2CN(S(=O)(=O)c3ccc(NC(C)=O)cc3)CC(C1)C2(C)C`, the melting point stood at 130 °C.

The compound `O=C(O)[C@@H]1CCCN1S(=O)(=O)CCS` came in with a melting point of 99 to 101 °C.

Turning to `O=C1c2cccc(NC(=S)Nc3cc[nH]n3)c2C2CC3(CCN12)SCCS3` (stereo not drawn), the melting point was 185 °C.

Take `CN1CCC(=C2c3ccccc3C=Cc3ccc(Br)cc32)CC1`: the melting point was in the range of 189 to 190 °C.

In turn, `Cc1c(C(=O)Nc2ccc(N3CCC(N4CCSCC4)CC3)c(C#N)c2)cnn1-c1ccc(Cl)cc1` returned a melting point of 256 °C.

As to `CCCCc1nc(C(F)(F)F)c(C(=O)OCC)[nH]1`, the melting point fell in the range of 51 to 53 °C.

`CCCCn1c(=O)n(CC=C(C)C)c(=O)c2c1ncn2S(=O)(=O)c1ccc(C)cc1`: the melting point lay in the range of 130 to 135 °C.

`CCCCCCCCN(C)C(=O)CC(=O)N(C)CCCCCCCC` had a melting point of 41 °C.

`CN(c1cccc2cc(C3=NCC(CN4CCS(=O)(=O)CC4)S3)[nH]c12)S(=O)(=O)c1cccs1` (stereo not drawn) had a melting point of 242 °C.

On to `CC(C)(O)C#Cc1cccc(N)c1`, for which the melting point fell in the range of 118 to 119 °C.

In the case of `CCc1oc2ccccc2c1C(O)c1ccccc1` (stereo not drawn), the melting point lay in the range of 98 to 99 °C.

Regarding `CCOC(=O)C(Cc1ccc(OCCn2c(=O)sc3cc(C(=O)C4CC4)ccc32)cc1)OCC(F)(F)F` (stereo not drawn), the melting point was in the range of 113 to 115 °C.

As to `CCc1cc(=O)n(C)c2c1C(=O)CCC2`, the melting point fell in the range of 65 to 70 °C.

The compound `CN1Cc2cc(C(c3ccccc3)n3ccnc3)ccc2NC1=O` (stereo not drawn) registered a melting point of 174 °C.

Turning to `COc1ccc2nc(NC(=O)C(CC3CCCC3)c3ccc(S(=O)(=O)NCc4ccccc4F)cc3)sc2n1` (stereo not drawn), the melting point was 238 to 240 °C.

On to `COc1cc(N2CCC(N3CCOCC3)C2)ccc1Nc1ncc2ccc(-c3ccccc3N(C)S(C)(=O)=O)n2n1` (stereo not drawn), for which the melting point fell in the range of 110 to 119 °C.

In turn, `Nc1ncc2ncn([C@H]3C=C[C@@H](O)C3)c2n1` (racemic) gave a melting point of 144 to 147 °C.

In turn, `CC[C@H]1[C@H](O)C2(CC2)C(=O)N1c1ccc(C#N)c(C(F)(F)F)c1` registered a melting point of 106 to 110 °C.

As to `CC(C(=O)O)c1cc(Cl)c(N2CCOCC2)cc1O` (stereo not drawn), the melting point is 198 to 200 °C.

`COc1cccc(Cc2cc3cccc(-c4cccc(C(=O)Nc5ccc(F)nc5)c4)c3o2)c1` came in with a melting point of 196 to 199 °C.

Turning to `CC[C@H]1CC[C@H](CCc2ccc(C(=O)CCC(=O)O)cc2)CC1`, the melting point was 141 to 143 °C.

Consider `O=C(Nc1ccc2ccc(Cl)nc2n1)c1cccc(Br)c1`, for which the melting point came to 224 °C.

`CN1CCC(N2C(=O)Nc3ccccc3C2c2ccccc2)CC1` (stereo not drawn) gave a melting point of 252 to 253 °C.

`CC(=O)c1cc(C[C@H](NC(=O)c2c(Cl)cccc2Cl)C(=O)O)ccc1-c1ccccc1` registered a melting point of 109 to 111 °C.

For the compound `CCCCC1c2sccc2CCN1CCCOc1ccc([N+](=O)[O-])cc1` (stereo not drawn), the melting point lay within 72 to 75 °C.

In the case of `CCCCCC/C=C\CCCCCCCC(=O)N[C@H]1CCCNC(=O)C1`, the melting point was in the range of 67 to 68 °C.

For `O=C1CCC2(CCC(=O)N2c2ccc(Cc3ccc(N4C(=O)CCC45CCC(=O)O5)cc3)cc2)O1` (stereo not drawn), the melting point stood at 135 °C.

For the compound `COc1cccc2cc(C(=O)c3ccc(Cl)c([N+](=O)[O-])c3)oc12`, the melting point is 136 °C.

In the case of `Brc1ccc2c(c1)/C(=C/CCN1CCCC1)c1cc(Br)ccc1OC2`, the melting point lay within 102 to 103 °C.

In turn, `Cc1c(C2CCN(Cc3ccc(Cl)cc3)CC2)n[nH]c1-c1ccccc1` returned a melting point of 192 to 193 °C.

`COc1ccc(-c2ccnc3c(C(=O)c4cccs4)cnn23)cc1NC(=O)CC(C)C` yielded a melting point of 192 to 194 °C.
